# Measured values as given in ChEMBL document CHEMBL1153505, “Free and bound state structures of 6-O-methyl homoerythromycins and epitope mapping of their interactions with ribosomes” (Bioorg Med Chem, 2009).
# Target: Bacterial 70S ribosome
# Assay: Inhibition of Escherichia coli ribosome
# Assay type: subcellular
row,SMILES,IC50
1,CC[C@H]1OC(=O)[C@H](C)[C@@H](O[C@H]2C[C@@](C)(OC)[C@@H](O)[C@H](C)O2)[C@H](C)[C@@H](O[C@@H]2O[C@H](C)C[C@H](N(C)C)[C@H]2O)[C@](C)(O)C[C@@H](C)CN(C)[C@H](C)[C@@H](O)[C@]1(C)O [AZITHROMYCIN],300 nM
2,CC[C@H]1OC(=O)[C@H](C)[C@@H](O)[C@H](C)[C@@H](O[C@@H]2O[C@H](C)C[C@H](N(C)C)[C@H]2O)[C@](C)(OC)C[C@@H](C)NC(=O)[C@H](C)[C@@H](O)[C@]1(C)O,> 100000 nM
3,CC[C@H]1OC(=O)[C@H](C)[C@@H](O)[C@H](C)[C@@H](O[C@@H]2O[C@H](C)C[C@H](N(C)C)[C@H]2O)[C@](C)(OC)C[C@@H](C)C(=O)N[C@H](C)[C@@H](O)[C@]1(C)O,> 100000 nM
4,CC[C@H]1OC(=O)[C@H](C)[C@@H](O[C@H]2C[C@@](C)(OC)[C@@H](O)[C@H](C)O2)[C@H](C)[C@@H](O[C@@H]2O[C@H](C)C[C@H](N(C)C)[C@H]2O)[C@](C)(OC)C[C@@H](C)NC(=O)[C@H](C)[C@@H](O)[C@]1(C)O,100 nM
5,CC[C@H]1OC(=O)[C@H](C)[C@@H](O[C@H]2C[C@@](C)(OC)[C@@H](O)[C@H](C)O2)[C@H](C)[C@@H](O[C@@H]2O[C@H](C)C[C@H](N(C)C)[C@H]2O)[C@](C)(OC)C[C@@H](C)C(=O)N[C@H](C)[C@@H](O)[C@]1(C)O,1300 nM
